# Laboratory results as given in US4840949A, “Oxadiazole-alkyl-purine derivatives useful as antitussive agents” (Chinoin Gyogyszer Es Vegyeszeti Termekek Gyara Rt., priority 1986, dated 1989).
# Structures can show the parent of a compound that is named as a salt.
# What was measured:
# [1] = Coughing caused by mechanical stimulation of the trachea bifurcatio on rabbits narcotised by nembutal, i.v. administration; type: in vivo, rabbit
# [2] = Alleviation of coughing caused by 15% citric acid spray on guinea pig, oral administration; type: in vivo; settings: for ED50: Cavia porcellus, po; for absolute strength of the antitussive effect, in words: Table I
# Procedure: The aforesaid facts are supported by Table I wherein the ID50 mg/kg values of 3,7-dihydro-3-methyl-7-[(5-methyl-1,2,4-oxadiazole-3-yl)-methyl]-1H-purine-2,6-dione (the most simple representative of the compounds of the Formula I); two known 1,2,4-oxadiazole-type antitussive agents, codeine and dextromethorphane (morphine type reference compounds) in the alleviation of coughing caused by a 15% citric acid spray are disclosed. […] As test animal guinea pigs are used. (Method: Arzneimittel Forschung 1966, 617-621). Test compound No. 5 is 2-(3-methyl-xanthine-7-yl)-acetamidoxime (a starting material of the Formula II).
# Alleviation of coughing caused by 15% citric acid spray on
# guinea pig, the test compounds are administered orally
# Antitussive effect of p.o. administered 3,7-dihydro-3-methyl-7-
# [(5-methyl-1,2,4-oxadiazole-3-yl)-methyl]-lH--purine-2,6-dione
# on coughing induced by 15% citric acid spray on guinea pig
# [3] = in vivo; settings: rat, ip
# [4] = 1 hour pre-treatment, 15% citric acid spray, read-out: Antitussive effect, measured 1 hour after oral administration ID50
compound,measurement,setting,value
"Cc1nc(Cn2cnc3c2c(=O)[nH]c(=O)n3C)no1 [Compound 1, 3,7-dihydro-3-methyl-7-[(5-methyl-1,2,4-oxadiazole-3-yl)-methyl]-1H-purine-2,6-dione]",ED50,"[1]; Oryctolagus cuniculus, iv, 2 min, rabbit, i.v., 2 minutes after administration, calculated according to Lichfield-Wilcoxon",2.24 mg/kg
same,decrease of coughing caused by mechanical stimulation,"[1]; rabbit, 0.5-8.0 mg/kg i.v.",decreases in dose-dependant manner
same,therapeutical index relative to reference compounds Nos. 4 and 6,[1]; taking into consideration the I.O. toxicity data,ten times more favorable
same,ED50,[2]; [4],8.5 mg/kg
same,ED50,"[2]; pre-treatment time 2.0 h, read-out: ID50, pre-treatment time 2.0 h",14.4 mg/kg
same,ED50,"[2]; pre-treatment time 4.0 h, read-out: ID50, pre-treatment time 4.0 h",13.8 mg/kg
same,ED50,"[2]; pre-treatment time 8.0 h, read-out: ID50, pre-treatment time 8.0 h",32.6 mg/kg
same,ED50,"[2]; read-out: ID50, pre-treatment time 0.5 h, p.o., pre-treatment time 0.5 h",7.5 mg/kg
same,"absolute strength of the antitussive effect, in words",[2]; p.o.,significantly higher than that of reference compounds Nos. 2-4 and 6
same,duration of oral antitussive effect,"[2]; p.o., Table I/A",very long-lasting
same,LD50,[3],700 mg/kg
"Cc1nc(Cn2cnc3c2c(=O)n(C)c(=O)n3C)no1 [Compound 2, 3,7-dihydro-1,3-dimethyl-7-[(5-methyl-1,2,4-oxadiazole-3-yl)-methyl]-1H--purine-2,6-dione, reference compound]",ED50,[2]; [4],111 mg/kg
"COc1ccc2c3c1O[C@H]1[C@@H](O)C=C[C@H]4[C@@H](C2)N(C)CC[C@@]341 [Compound 4, Codeine.HCl, reference compound]",antitussive effect relative to compound No. 1,"[1]; rabbit, i.v.",the same or a somewhat lower antitussive effect
same,LD50,[3],72.4 mg/kg
"Cn1c(=O)[nH]c(=O)c2c1ncn2CC(N)=NO [Compound 5, 2-(3-methyl-xanthine-7-yl)-acetamidoxime, reference compound]",Antitussive effect at 50 mg/kg,"[2]; 50 mg/kg p.o., 1 hour after administration",inactive
same,"absolute strength of the antitussive effect, in words",[2]; p.o.,practically negligible
"COc1ccc2c(c1)[C@]13CCCC[C@@H]1[C@H](C2)N(C)CC3 [Compound 6, Dextromethorphan, reference compound]",antitussive effect relative to compound No. 1,"[1]; rabbit, i.v.",the same or a somewhat lower antitussive effect
